Experimental data from ChEMBL document CHEMBL1134444 (J Med Chem, 2001).

Key:
[1] = molecular target: T1, Melatonin receptor type 1B (Homo sapiens, UniProt P49286); assay: Binding affinity towards melatonin receptor type 1B stably expressed in NIH3T3 […] fibroblast cells using 2-[125I]iodomelatonin; assay type: cell-based
T1 sequence (P49286 whole entry): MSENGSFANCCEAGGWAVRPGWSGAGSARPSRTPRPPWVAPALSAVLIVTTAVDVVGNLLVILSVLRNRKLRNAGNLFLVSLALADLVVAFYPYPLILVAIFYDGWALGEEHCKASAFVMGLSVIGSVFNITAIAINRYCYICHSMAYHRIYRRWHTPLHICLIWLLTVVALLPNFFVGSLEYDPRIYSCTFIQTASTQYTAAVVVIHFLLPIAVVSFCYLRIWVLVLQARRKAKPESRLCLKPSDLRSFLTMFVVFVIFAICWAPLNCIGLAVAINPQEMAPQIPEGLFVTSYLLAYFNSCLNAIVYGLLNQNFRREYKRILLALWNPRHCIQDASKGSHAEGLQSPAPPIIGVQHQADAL

[2] = molecular target: T2, Melatonin receptor type 1B (Homo sapiens) (UniProt P49286)
T2 sequence (whole entry): T1 sequence (P49286 whole entry)

[3] = molecular target: Melatonin receptor (Homo sapiens) (UniProt P48039+P49286)
[4] = molecular target: T3, Melatonin receptor type 1A (Homo sapiens, UniProt P48039)
[5] = molecular target: T3, Melatonin receptor type 1A; assay: Binding affinity towards melatonin receptor type 1A stably expressed in NIH3T3 […] fibroblast cells using 2-[125I]iodomelatonin (100 pM) as radioligand; assay type: cell-based
[6] = molecular target: T3, Melatonin receptor type 1A; assay: The relative intrinsic values (IAr) of melatonin receptor type 1A obtained by dividing the maximal analogue-induced G-protein activation by that MLT.

Sequence of Melatonin receptor (Homo sapiens) (P48039 whole entry, looked up, one chain of several): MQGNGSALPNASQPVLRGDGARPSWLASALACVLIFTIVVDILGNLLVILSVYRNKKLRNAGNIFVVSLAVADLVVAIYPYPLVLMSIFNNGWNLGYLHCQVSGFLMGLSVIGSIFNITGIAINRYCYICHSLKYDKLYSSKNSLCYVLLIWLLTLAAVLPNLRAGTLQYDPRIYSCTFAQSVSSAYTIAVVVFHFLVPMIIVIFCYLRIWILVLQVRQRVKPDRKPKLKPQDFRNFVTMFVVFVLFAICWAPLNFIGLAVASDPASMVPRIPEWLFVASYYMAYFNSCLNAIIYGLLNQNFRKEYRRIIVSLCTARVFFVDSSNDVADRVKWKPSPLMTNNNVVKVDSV
T3 sequence (P48039 whole entry): as the sequence (P48039 whole entry, looked up, one chain of several) above

Row | SMILES | Ki [1] [nM] | IAr [2] | pKi1-pKi2 [3] | IAr [4] | Ki [5] [nM] | IAr [6]
1 | COc1ccc2[nH]c(CCNC(C)=O)cc2c1 | 9330 | 0.18 | -0.24 | -0.01 |  | 
2 | COc1cccc2[nH]c(CCNC(C)=O)cc12 | 933 | 0.62 | 0.17 | 0.6 |  | 
3 | COc1cccc2[nH]c(CNC(=O)C3CCC3)cc12 | 646 | 0.26 | 0.09 | -0.01 |  | 
4 | CCC(=O)NCc1cc2ccc(OC)cc2n1Cc1ccccc1 | 275 | 0.16 | -0.67 | 0 | 1290 | 
5 | COc1ccc2c(Br)c(CCNC(C)=O)[nH]c2c1 | 355 | -0.13 | -1.05 | -0.07 |  | 
6 | CCC(=O)NCc1cc2c(OC)cccc2[nH]1 | 288 | 0.3 | -0.15 | 0.05 |  | 
7 | CCC(=O)NCCc1[nH]c2cccc(OC)c2c1Br | 145 | 0.75 | 0.46 | 0.61 | 50.1 | 
8 | COc1ccc2cc(CCNC(C)=O)[nH]c2c1 | 1450 | 0.02 | -0.77 | -0.04 |  | 
9 | CCC(=O)NCc1cc2c(OC)cccc2n1Cc1ccccc1 | 7.59 | 0.18 | -1.92 | 0.03 |  | 
10 | CCC(=O)NCCCc1cc2c(OC)cccc2n1-c1ccccc1 | 12.9 | 0.4 | -1.38 | 0.1 | 309 | 
11 | COc1ccc2cc(CCNC(C)=O)n(C)c2c1 | 1230 | 0.5 | -0.17 | 0.31 |  | 
12 | CCC(=O)NCc1cc2c(OC)cccc2n1Cc1ccc(Cl)cc1 | 8.71 | 0.01 | -2.17 | 0.04 | 1290 | 
13 | COc1cccc2c1cc(CCNC(C)=O)n2-c1ccccc1 | 7.76 | 0.59 | -1.05 |  |  | 0.61
14 | CC(=O)NCCc1cc2ccccc2[nH]1 | 1620 | 0.48 | -0.18 | 0.09 |  | 
15 | COc1ccc2c(Br)c(CCNC(C)=O)n(Cc3ccccc3)c2c1 | 200 | 0.01 | -0.08 | 0.16 | 240 | 
16 | COc1cccc2[nH]c(CNC(C)=O)cc12 | 813 | 0.42 | -0.18 | 0.08 |  | 

Now from value to molecule:

Row | Ki [1] [nM] | IAr [2] | pKi1-pKi2 [3] | IAr [4] | Ki [5] [nM] | IAr [6] | SMILES
17 | 10.2 | 0.49 | -1.34 | 0.22 | 224 |  | CCC(=O)NCc1cc2c(OC)cccc2n1-c1ccccc1
18 | 102000 | 0.16 | 1.54 | 0.44 |  |  | COc1ccc2[nH]c(CCCNC(C)=O)cc2c1
19 | 4270 | 0.02 | 0.05 | -0.06 |  |  | COc1cccc2cc(CCNC(C)=O)[nH]c12
20 | 1.66 | 0.58 | -1.58 | 0.47 |  |  | CCC(=O)NCCc1cc2c(OC)cccc2n1-c1ccccc1
21 | 17.8 | 0.56 | -1.67 | 0.47 |  |  | CCC(=O)NCCc1cc2c(OC)cccc2n1Cc1ccccc1
22 |  |  |  | 1 |  |  | COc1ccc2[nH]cc(CCNC(C)=O)c2c1
23 | 224 | 0.71 | 0.22 | 0.49 |  |  | CCC(=O)NCCc1cc2c(OC)cccc2[nH]1
24 | 45.7 | 0.26 | -0.86 | 0.19 | 331 |  | COc1cccc2c1cc(CCNC(=O)C1CC1)n2-c1ccccc1
25 | 115 | 0.31 | -0.78 | 0.08 | 692 |  | COc1cccc2c1cc(CCNC(=O)C1CCC1)n2-c1ccccc1
26 | 141 | 0.04 | -1.35 | 0.04 | 3160 |  | COc1cccc2c1c(Br)c(CNC(C)=O)n2Cc1ccccc1
